13 compounds from US20240124483A1, “Methods for the Treatment of Fibrotic Disease” (SHY Therapeutics, LLC, priority 2021, published 2024) can be followed below.

Where two headings read alike, the source gives them in different places.

The target of one assay is KRas wild type (Homo sapiens (Human), UniProt P01116). The assay can be described thus: Ras GTP Binding Domain Inhibition Assay, KRas wild type. An outline of the steps:
(§1)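 Fluorescent GTP binding to plate-captured His-tagged Ras: compound 20 μM (or dilution series for IC50), 3 h RT, ±Sos GEF 10-30 μg/mL last hour; then 100 nM Cy3/Cy5-GTP 45 min RT, wash ×3, read bound label.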

A further assay deals with Rac-1 (Homo sapiens (Human), UniProt P63000). The assay can be described thus: Ras GTP Binding Domain Inhibition Assay, Rac-1. An outline of the steps: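 Steps: coat His-tagged protein (10-30 μg/mL) on nickel wells overnight at 4° C; add test compound, 20 μM final or serial dilution, 1% DMSO, 3 h RT; optional Sos final hour; add 100 nM Cy3-GTP or Cy5-GTP, 45 min; wash and read fluorescence.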

The target of a further assay is KRas G12C mutant (Homo sapiens (Human), UniProt P01116, G12C). The assay can be described thus: Ras GTP Binding Domain Inhibition Assay, KRas G12C mutant. The gist of the method: as §1
The next assay concerns JNK. The assay can be described thus: JNK Activation Assay in Panc-1 (western blot). Also on record: key: Y = yes; N = No. The note with it: at 10 μM. Type of assay: cell-based, Human. An outline of the steps:
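Cells were serum-starved overnight in 0.5% FBS, then given compound (10 μM single dose or serial dilutions, 0.3% DMSO) for 3 h at 37 °C. TGF-b1 at 10 ng/ml followed, 1 h for Panc-1 and 20 min for C2C12. Phospho-JNK (Thr183/Tyr185) was read by western blot of lysates.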

For another assay, the system named is MAPK p38. The assay can be described thus: MAPK p38 Activation Assay in Panc-1 (western blot). It counts as cell-based, Human. Also on record: key: Y = yes; N = No. The note with it: at 10 μM. The gist of the method: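 Cells serum-starved overnight in 0.5% FBS, then compound 3 h at 37° C (10 μM or serial dilutions for IC50; 0.3% DMSO). TGF-b1 10 ng/ml stimulation followed: 1 h for Panc-1, 20 min for C2C12. Phospho-p38 (Thr180/Tyr182) measured by western blot of lysates.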

[1] abbreviates: + SOS, read-out: KRas wild type + SOS: % inh.
Where [2] appears, read: without SOS, read-out: KRas wild type: % inh.
Setting [3] is: without SOS, read-out: Rac-1: % inh.
[4] abbreviates: + SOS, read-out: KRas G12C mutant + SOS: % inh.
Where [5] appears, read: without SOS, read-out: KRas G12C mutant: % inh.

KRas G12C mutant, sequence (P01116 other isoform, or with tags, fused parts or gaps G12C): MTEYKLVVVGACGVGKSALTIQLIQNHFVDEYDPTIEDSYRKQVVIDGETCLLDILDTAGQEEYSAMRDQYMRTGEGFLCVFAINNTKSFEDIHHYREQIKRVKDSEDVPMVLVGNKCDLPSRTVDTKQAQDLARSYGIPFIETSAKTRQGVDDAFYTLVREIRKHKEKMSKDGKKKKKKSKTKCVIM
KRas wild type, sequence (P01116 other isoform, or with tags, fused parts or gaps): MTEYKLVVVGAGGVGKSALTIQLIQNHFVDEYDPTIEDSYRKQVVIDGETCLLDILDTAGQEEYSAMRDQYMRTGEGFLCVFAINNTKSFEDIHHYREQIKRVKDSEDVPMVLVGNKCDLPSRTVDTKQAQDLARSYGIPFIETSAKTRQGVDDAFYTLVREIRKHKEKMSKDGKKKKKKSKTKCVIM

Consider `COCCCCn1c(-c2nccn2C)nc2sc(-c3ccn(C(C)C)n3)c(C)c2c1=O` [Compound 33, 6-(1-Isopropyl-1H-pyrazol-3-yl)-3-(4-methoxybutyl)-5-methyl-2-(1-methyl-1H-imidazol-2-yl)thieno[2,3-d]pyrimidin-4(3H)-one], for which the inhibition at 20 µM at KRas wild type (setting [1]) is 1 to 25%; on KRas wild type (setting [2]) it was 0%; at Rac-1 (setting [3]), 0%; at KRas G12C mutant (setting [4]), 1 to 25%; on KRas G12C mutant (setting [5]), 0%. The “Activation of JNK in PANC-1” value in the assay with JNK is given as “N”. In addition, the “Activation of MAPK p38 in PANC-1” value in the assay on MAPK p38 is recorded as “N”.
`COCCOCCNc1nc(-c2nccn2C)nc2sc(-c3ccn(C(C)C)n3)c(C)c12` [Compound 21, 6-(1-Isopropyl-1H-pyrazol-3-yl)-N-(2-(2-methoxyethoxy)ethyl)-5-methyl-2-(1-methyl-1H-imidazol-2-yl)thieno[2,3-d]pyrimidin-4-amine]: the inhibition at 20 µM on KRas wild type (setting [1]) lay in the range of 76 to 100%; on KRas wild type (setting [2]) it was 76 to 100%; on Rac-1 (setting [3]) it was 76 to 100%; on KRas G12C mutant (setting [4]) it was 76 to 100%; on KRas G12C mutant (setting [5]), 46 to 75%. In addition, the “Activation of JNK in PANC-1” value with JNK is “Y”. For the same compound, the “Activation of MAPK p38 in PANC-1” value in the assay with MAPK p38 is reported as “Y”.
For the compound `COCC1(OC)CCN(c2nc(-c3nccn3C)nc3sc(-c4ccn(C(C)C)n4)c(C)c23)C1` (racemic) [Compound 27, rac-6-(1-Isopropyl-1H-pyrazol-3-yl)-4-(3-methoxy-3-(methoxymethyl)pyrrolidin-1-yl)-5-methyl-2-(1-methyl-1H-imidazol-2-yl)thieno[2,3-d]pyrimidine], the inhibition at 20 µM lay within 76 to 100% at KRas wild type (setting [1]); 76 to 100% on KRas wild type (setting [2]); 1 to 25% at Rac-1 (setting [3]); 76 to 100% at KRas G12C mutant (setting [4]); 76 to 100% on KRas G12C mutant (setting [5]). Also, the “Activation of JNK in PANC-1” value in the assay with JNK is “Y”. In the assay on MAPK p38, the “Activation of MAPK p38 in PANC-1” value is recorded as “Y”.
Take `COc1cc(-c2sc3nc(-c4nccn4C)nc(N[C@@H]4CC[C@@H](OC)C4)c3c2-c2ccccc2)ccn1` (racemic) [Compound 47, N-((1R,3R)-3-Methoxycyclopentyl)-6-(2-methoxypyridin-4-yl)-2-(1-methyl-1H-imidazol-2-yl)-5-phenylthieno[2,3-d]pyrimidin-4-amine]: the inhibition at 20 µM at KRas wild type (setting [1]) was in the range of 76 to 100%; on KRas wild type (setting [2]) it was 76 to 100%; at Rac-1 (setting [3]), 46 to 75%; on KRas G12C mutant (setting [4]) it was 76 to 100%; on KRas G12C mutant (setting [5]), 46 to 75%. For the same compound, in the assay with JNK, the “Activation of JNK in PANC-1” value is on record as “Y”. Further, in the assay with MAPK p38, the “Activation of MAPK p38 in PANC-1” value was “N”.
Turning to `COc1cccc(-c2sc3nc(-c4nccn4C)nc(N[C@H]4C[C@H](OC)C4)c3c2C)c1F` [Compound 42, 6-(2-Fluoro-3-methoxyphenyl)-N-((1r,3r)-3-methoxycyclobutyl)-5-methyl-2-(1-methyl-1H-imidazol-2-yl)thieno[2,3-d]pyrimidin-4-amine], the inhibition at 20 µM was 76 to 100% on KRas wild type (setting [1]); 76 to 100% on KRas wild type (setting [2]); 0% at Rac-1 (setting [3]); 76 to 100% on KRas G12C mutant (setting [4]); 46 to 75% at KRas G12C mutant (setting [5]). Besides, in the assay on JNK, the “Activation of JNK in PANC-1” value is reported as “Y”. In addition, the “Activation of MAPK p38 in PANC-1” value in the assay with MAPK p38 was “Y”.
As for `COCCCn1c(-c2nccn2C)nc2sc(-c3ccn(C(C)C)n3)c(-c3ccccc3)c2c1=O` [Compound 36, 6-(1-Isopropyl-1H-pyrazol-3-yl)-3-(3-methoxypropyl)-2-(1-methyl-1H-imidazol-2-yl)-5-phenylthieno[2,3-d]pyrimidin-4(3H)-one], the inhibition at 20 µM on KRas wild type (setting [1]) was 1 to 25%; at KRas wild type (setting [2]), 1 to 25%; on Rac-1 (setting [3]) it was 0%; at KRas G12C mutant (setting [4]), 1 to 25%; at KRas G12C mutant (setting [5]), 0%. In the assay on JNK, the “Activation of JNK in PANC-1” value was “Y”. In the assay on MAPK p38, the “Activation of MAPK p38 in PANC-1” value is reported as “Y”.
As to `COc1cc(Nc2nc(-c3nccn3C)nc3sc(-c4ccn(C(C)C)n4)c(C)c23)ncn1` [Compound 19, 6-(1-Isopropyl-1H-pyrazol-3-yl)-N-(6-methoxypyrimidin-4-yl)-5-methyl-2-(1-methyl-1H-imidazol-2-yl)thieno[2,3-d]pyrimidin-4-amine], the inhibition at 20 µM at KRas wild type (setting [1]) is 76 to 100%; at KRas wild type (setting [2]), 76 to 100%; at Rac-1 (setting [3]), 46 to 75%; on KRas G12C mutant (setting [4]), 76 to 100%; on KRas G12C mutant (setting [5]) it was 46 to 75%. Besides, in the assay on JNK, the “Activation of JNK in PANC-1” value is on record as “Y”. Besides, the “Activation of MAPK p38 in PANC-1” value with MAPK p38 is listed as “Y”.
On to `COc1cccc(-c2sc3nc(-c4nccn4C)nc(N[C@@H]4CC[C@@H](OC)C4)c3c2-c2ccccc2)c1F` (racemic) [Compound 41, 6-(2-Fluoro-3-methoxyphenyl)-N-((1R,3R)-3-methoxycyclopentyl)-2-(1-methyl-1H-imidazol-2-yl)-5-phenylthieno[2,3-d]pyrimidin-4-amine], for which the inhibition at 20 µM fell in the range of 76 to 100% at KRas wild type (setting [1]); 26 to 45% on KRas wild type (setting [2]); 1 to 25% at Rac-1 (setting [3]); 76 to 100% at KRas G12C mutant (setting [4]); 26 to 45% at KRas G12C mutant (setting [5]). In addition, the “Activation of JNK in PANC-1” value in the assay on JNK is on record as “Y”. The “Activation of MAPK p38 in PANC-1” value with MAPK p38 was “Y”.
As for `CO[C@H]1CNC[C@@H](Nc2nc(-c3nccn3C)nc3sc(-c4ccn(C(C)C)n4)cc23)C1` [Compound 28, 6-(1-Isopropyl-1H-pyrazol-3-yl)-N-((3S,5R)-5-methoxypiperidin-3-yl)-2-(1-methyl-1H-imidazol-2-yl)thieno[2,3-d]pyrimidin-4-amine], the inhibition at 20 µM on KRas wild type (setting [1]) is 76 to 100%; at KRas wild type (setting [2]), 76 to 100%; on Rac-1 (setting [3]), 46 to 75%; on KRas G12C mutant (setting [4]), 76 to 100%; on KRas G12C mutant (setting [5]) it was 76 to 100%. For the same compound, the “Activation of JNK in PANC-1” value with JNK was “Y”. For the same compound, the “Activation of MAPK p38 in PANC-1” value with MAPK p38 is “Y”.
With `CO[C@H]1C[C@H](CNc2nc(-c3nccn3C)nc3sc(-c4ccn(C(C)C)n4)c(C)c23)C1` [Compound 16, 6-(1-Isopropyl-1H-pyrazol-3-yl)-N-(((1r,3r)-3-methoxycyclobutyl)methyl)-5-methyl-2-(1-methyl-1H-imidazol-2-yl)thieno[2,3-d]pyrimidin-4-amine], the inhibition at 20 µM at KRas wild type (setting [1]) is 46 to 75%; at KRas wild type (setting [2]), 76 to 100%; on Rac-1 (setting [3]), 26 to 45%; at KRas G12C mutant (setting [4]) it was 46 to 75%; at KRas G12C mutant (setting [5]) it was 46 to 75%. The “Activation of JNK in PANC-1” value in the assay on JNK is reported as “Y”. Moreover, the “Activation of MAPK p38 in PANC-1” value in the assay with MAPK p38 was “Y”.
On to `COCCn1c(-c2nccn2C)nc2sc(-c3ccn(C(C)C)n3)c(C)c2c1=O` [Compound 29, 6-(1-Isopropyl-1H-pyrazol-3-yl)-3-(2-methoxyethyl)-5-methyl-2-(1-methyl-1H-imidazol-2-yl)thieno[2,3-d]pyrimidin-4(3H)-one], for which the inhibition at 20 µM was 76 to 100% at KRas wild type (setting [1]); 76 to 100% on KRas wild type (setting [2]); 0% at Rac-1 (setting [3]); 76 to 100% at KRas G12C mutant (setting [4]); 46 to 75% on KRas G12C mutant (setting [5]). Also, the “Activation of JNK in PANC-1” value with JNK was “Y”. Further, the “Activation of MAPK p38 in PANC-1” value in the assay with MAPK p38 is “Y”.
Take `CO[C@H]1CC[C@@H](Nc2nc(-c3nccn3C)nc3sc(-c4ccn(C)n4)c(-c4ccccc4)c23)C1` (racemic) [Compound 5, rac-N-((1R,3S)-3-Methoxycyclopentyl)-2-(1-methyl-1H-imidazol-2-yl)-6-(1-methyl-1H-pyrazol-3-yl)-5-phenylthieno[2,3-d]pyrimidin-4-amine]: the inhibition at 20 µM on KRas wild type (setting [1]) lay within 76 to 100%; at KRas wild type (setting [2]), 26 to 45%; on Rac-1 (+ SOS, read-out: Rac-1 + SOS: % inh.), 46 to 75%; at Rac-1 (setting [3]) it was 46 to 75%; at KRas G12C mutant (setting [4]) it was 76 to 100%; on KRas G12C mutant (setting [5]) it was 26 to 45%. The “Activation of JNK in PANC-1” value in the assay on JNK is recorded as “Y”. The “Activation of MAPK p38 in PANC-1” value with MAPK p38 is on record as “Y”.
For the compound `COc1nccc(-c2sc3nc(-c4nccn4C)nc(N[C@H]4C[C@H](OC)C4)c3c2-c2ccccc2)c1F` [Compound 45, 6-(3-Fluoro-2-methoxypyridin-4-yl)-N-((1r,3r)-3-methoxycyclobutyl)-2-(1-methyl-1H-imidazol-2-yl)-5-phenylthieno[2,3-d]pyrimidin-4-amine], the inhibition at 20 µM is 76 to 100% at KRas wild type (setting [1]); 46 to 75% at KRas wild type (setting [2]); 46 to 75% on Rac-1 (setting [3]); 76 to 100% on KRas G12C mutant (setting [4]); 26 to 45% on KRas G12C mutant (setting [5]). In addition, the “Activation of JNK in PANC-1” value with JNK is listed as “Y”. Further, the “Activation of MAPK p38 in PANC-1” value in the assay with MAPK p38 is “N”.
